# Laboratory results: patent EP0570714B1, “Use of aminoalcohol-N-acylderivatives for the manufacture of a medicament for the treatment of neurogenic endoneural oedema of the peripheral nerve” (LIFEGROUP S.p.A., priority 1992, dated 1993)
# “And” between values parts separate entries of the source, which are not always exact repeats. Identical values can stand only once.
# What was measured:
# mast cells = test: Mast cell degranulation after crushing of the sciatic nerve (in vivo, histological count); design: species or system Male Spraugue Dawley Rats; conditions: 20 mg/kg intraperitoneally for 15 days, on soy lecithin liposomes, sciatic nerve compression at 16th day, sacrifice three hours after, control average 61.4
# Protocol: In order to verify the pharmacological activity of N-acyl derivatives of aminoalcohols, and in particular of N-PEA, under conditions of traumatic noxa due to crushing of the sciatic nerve, and therefore able to induce mast cells degranulation, the following "in vivo" biologic test was carried out.
# Male Spraugue Dawley Rats weighing about 200 -250 g were divided into two groups and subjected for 15 days to two different treatments: the first group, being the control group, was intraperitoneally treated with a solution of liposomes of soy lecithin, whereas the second group was intraperitoneally treated with 20 mg/kg N-PEA vehiculated on soy lecithin liposomes.
# At the 16th day the animals were subjected to a bland general anesthesia with ethyl ether, thereby proceeding to the operation of the nerve lesion as hereinbelow described. The left sciatic nerve was exposed just in the spot of its entrance to the haunch, by operating a dissection of the muscular bands. The thus exposed sciatic nerve was then repeatedly compressed as closest as possible to its origin, by using a crushing forceps. The wound was temporarily sewn up and the animals were left to recover.
# Three hours after the sciatic nerve compression lesion the animals were sacrificed in order to take the sciatic nerve samples and to fix it for the histological analysis with a mixture of acetic acid and formalin. […]
# [1] = Physical chemical characteristics: solubility; type: physicochemical
# Excerpt: The physical chemical characteristics of the N-PEA product synthesized according to the present example were the following : […]
smiles,measurement,setting,value
"CCCCCCCCCCCCCCCC(=O)NCCO [N-PEA, N-(2-hydroxyethyl)hexadecanamide]","Number of degranulated cells on a total of 100 examined cells, average",mast cells; average of 5 rats,36.6
same,Number of degranulated cells on a total of 100 examined cells,"mast cells; individual rats, 20 mg/kg",35 and 44 and 37 and 25 and 42
same,solubility in water,[1],insoluble
same,solubility in organic solvent,[1]; solvents in which soluble,"Hot MetOH, CHCl3, DMSO"
same,solubility in aqueous vehicles,[1]; stated as the reason for choosing the liposome vehicle,poor solubility
